For assay [1], the target named is rRNA adenine N-6-methyltransferase (Bacillus subtilis, UniProt P13956). Put plainly: Inhibition of Bacillus subtilis ErmC' methyltransferase.
The nature of assay [2]: Binding affinity to Enterococcus faecalis ErmAM methyltransferase assessed as inhibition constant.
For assay [3], the system named is Escherichia coli. Put plainly: Antimicrobial activity against Escherichia coli ATCC 8739 assessed as reduction in bacterial growth. Type of assay: functional.
Assay [4] relates to Escherichia coli. In words: Antimicrobial activity against Escherichia coli ATCC 25922 assessed as bacterial growth inhibition. Type of assay: functional.
Another assay relates to Enterobacter cloacae. In words: Antibacterial activity against Enterobacter cloacae ATCC 29893 assessed as reduction in microbial growth. The format is functional.
The subject of the next assay is Klebsiella aerogenes. Put plainly: Antibacterial activity against Enterobacter aerogenes ATCC 13048 assessed as reduction in bacterial growth. Type of assay: functional.
The next assay concerns Citrobacter amalonaticus. Put plainly: Antibacterial activity against Citrobacter amalonaticus assessed as reduction in microbial growth. The format is functional.
The subject of assay [5] is Escherichia coli. Put plainly: Antibacterial activity against Escherichia coli ATCC 8730 assessed as bacterial growth inhibition. The format is functional.
A further assay relates to Klebsiella pneumoniae. Put plainly: Antibacterial activity against Klebsiella pneumoniae ATCC 10031 assessed as reduction in microbial growth. The format is functional.
The next assay has as its system Acinetobacter baumannii. Put plainly: Antibacterial activity against Acinetobacter baumannii assessed as reduction in bacterial growth by broth microdilution method. The format is functional. Background: Dilution methods test growth across graded concentrations, often in twofold steps.
In assay [6] the target is T1, Catechol O-methyltransferase (Homo sapiens, UniProt P21964).
T1 sequence (P21964 whole entry): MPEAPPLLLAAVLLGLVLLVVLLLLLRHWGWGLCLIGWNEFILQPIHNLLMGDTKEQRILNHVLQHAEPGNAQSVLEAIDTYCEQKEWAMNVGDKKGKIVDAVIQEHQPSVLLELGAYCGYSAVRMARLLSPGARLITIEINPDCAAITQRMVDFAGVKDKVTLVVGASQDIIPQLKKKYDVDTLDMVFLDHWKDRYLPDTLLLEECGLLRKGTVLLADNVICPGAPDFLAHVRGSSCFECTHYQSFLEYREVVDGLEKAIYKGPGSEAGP
Put plainly: Inhibition of S-COMT (unknown origin).

IC50, Ki and MIC data for 16 molecules are collected here from ChEMBL document CHEMBL5257111, “Ribosome-targeting antibiotics and resistance via ribosomal RNA methylation” (RSC Med Chem, 2023).

In general, IC50 refers to the concentration needed to halve the response being measured. Low values mean greater potency, high ones weaker potency. For orientation: Ki means a dissociation constant, usually derived from enzyme kinetics or from competition with a known ligand. In general, MIC refers to the lowest concentration that inhibits growth of the organism.

Chain of rRNA adenine N-6-methyltransferase (P13956 whole entry): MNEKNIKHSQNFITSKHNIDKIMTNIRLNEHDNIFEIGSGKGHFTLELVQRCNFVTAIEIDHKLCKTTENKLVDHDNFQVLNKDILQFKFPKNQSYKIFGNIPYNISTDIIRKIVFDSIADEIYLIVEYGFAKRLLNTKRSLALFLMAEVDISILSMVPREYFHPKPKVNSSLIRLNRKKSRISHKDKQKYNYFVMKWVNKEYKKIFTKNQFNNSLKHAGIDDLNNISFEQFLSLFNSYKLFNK

In turn, `Cc1ccc(Nc2ncc(C(=O)N3CCN(c4ccc(C(F)(F)F)cn4)CC3)s2)nc1` showed an IC50 in assay [1] of 116 µM.

Consider `O=C1c2ccccc2C(=O)N1CN(CCCn1ccnc1)CN1C(=O)c2ccccc2C1=O`, for which, in assay [1], the IC50 worked out at 300 µM.

Consider `Nc1nc(NC2Cc3ccccc3C2)nc(N2CCC(C(=O)NCCc3c[nH]c4ccccc34)CC2)n1`, for which the Ki in assay [2] turned out to be 2 µM.

For the molecule `NC[C@@H]1O[C@H](O[C@H]2[C@@H](O)[C@H](O[C@@H]3[C@@H](O)[C@H](N)C[C@H](N)[C@H]3O[C@H]3O[C@H](CN)[C@@H](O)[C@H](O)[C@H]3N)O[C@@H]2CO)[C@H](N)[C@@H](O)[C@@H]1O` [FRAMYCETIN], in the assay with Escherichia coli [3], the MIC was greater than 256 µg/mL.

Regarding `O=C(c1c[nH]c(=O)[nH]1)N1CCN(c2ccc(C(F)(F)F)cn2)CC1`, the IC50 in assay [1] is 100 µM.

Consider `NC[C@H]1O[C@H](O[C@H]2[C@H](O)[C@@H](O[C@H]3O[C@H](CO)[C@@H](O)[C@H](N)[C@H]3O)[C@H](N)C[C@@H]2N)[C@H](O)[C@@H](O)[C@@H]1O` [KANAMYCIN], for which, in the assay with Escherichia coli [4], the minimal inhibitory concentration (MIC) is greater than 256 µg/mL.

For GENTAMICIN, the MIC in the assay on Escherichia coli [4] is greater than 256 µg/mL; with Enterobacter cloacae, greater than 512 µg/mL; in the assay with Klebsiella aerogenes it was greater than 512 µg/mL; in the assay with Citrobacter amalonaticus it was greater than 512 µg/mL; in the assay on Escherichia coli [5], greater than 512 µg/mL; with Klebsiella pneumoniae, greater than 512 µg/mL.

In assay [1], `O=C(c1cnc(Nc2ncccn2)s1)N1CCN(c2ccc(C(F)(F)F)cn2)CC1` displayed an IC50 of 110 µM.

As for `NCC[C@H](O)C(=O)N[C@@H]1C[C@H](N)[C@@H](O[C@H]2O[C@H](CN)[C@@H](O)[C@H](O)[C@H]2O)[C@H](O)[C@H]1O[C@H]1O[C@H](CO)[C@@H](O)[C@H](N)[C@H]1O` [AMIKACIN], the MIC in the assay with Enterobacter cloacae is greater than 512 µg/mL; with Klebsiella aerogenes, greater than 512 µg/mL; in the assay with Citrobacter amalonaticus, greater than 512 µg/mL; in the assay on Escherichia coli [5] it was greater than 512 µg/mL; in the assay on Klebsiella pneumoniae, greater than 512 µg/mL; with Acinetobacter baumannii it was greater than 256 µg/mL.

In [6], `O=C(Nc1cccc(-c2nc3ccccc3[nH]2)c1)c1ccccc1` had an IC50 of 26 µM.

On to `NC[C@H]1O[C@H](O[C@H]2[C@H](O)[C@@H](O[C@H]3O[C@H](CO)[C@@H](O)[C@H](N)[C@H]3O)[C@H](N)C[C@@H]2N)[C@H](N)C[C@@H]1O` [TOBRAMYCIN], for which the MIC in the assay on Enterobacter cloacae, in the assay with Klebsiella aerogenes, in the assay with Citrobacter amalonaticus, in the assay with Escherichia coli [5] and in the assay on Klebsiella pneumoniae was greater than 512 µg/mL throughout.

Turning to `COc1ccc(C(=O)Nc2cccc(-c3nc4ccccc4[nH]3)c2)cc1`, half-maximal inhibition in assay [6] (IC50) was put at 73 µM.

In the case of `C(=N\Nc1ncnc2c1nnn2Cc1ccccc1)/c1ccccc1`, the IC50 in assay [1] worked out at 250 µM.

For the molecule `Nc1cccc(-c2nc(N)nc(NC3Cc4ccccc4C3)n2)c1`, the Ki in assay [2] turned out to be 4 µM.

For the molecule `OC[C@H]1O[C@@H](n2cnc3c(NC4CCCC4)ncnc32)[C@H](O)[C@@H]1O` [N6-CYCLOPENTYLADENOSINE], the IC50 in assay [1] amounted to 80 µM.

Molecule `Cc1ccc(Sc2cc(C)c(C#N)c(Sc3ccc(C)cc3)n2)cc1` registered an IC50 in assay [1] of 180 µM.
